According to patent US9566312B2, “Cyclic peptides and use as medicines” (priority 2012, dated 2017):
Where two headings read alike, the source gives them in different places. Starred links: 1 amine or outer side, 2 acyl side, 3 side chain; linkers in the order of their positions; H or OH if unused. Non-standard residues stand in square brackets, D forms with d. Residues, ends and D or L forms follow the SMILES beside them. X58 = C[C@H](COCCN1CCN(C2CCC2)CC1)[C@@H](C(=O)[*:2])N(C)[*:1]; X63 = C[C@H](CN1CCN(C2COC2)CC1)[C@@H](C(=O)[*:2])N(C)[*:1]; X8 = COCCN1CCN(C[C@@H](C)[C@@H](C(=O)[*:2])N(C)[*:1])CC1; X11 = CCN1CCN(C[C@H](C)[C@@H](C(=O)[*:2])N(C)[*:1])CC1; MeBmt = C/C=C/C[C@@H](C)[C@@H](O)[C@H](NC)C(=O)O; X24 = C[C@H](CO)[C@@H](C(=O)[*:2])N(C)[*:1]; NMeL = CN[C@@H](CC(C)C)C(=O)O; NMeV = CN[C@H](C(=O)O)C(C)C; dNMeA = CN[C@H](C)C(=O)O; Abu = CC[C@H](N)C(=O)O

How the values were obtained:
[1] = target: cyclophilin B (CypB) (Homo sapiens (Human), UniProt P23284); experiment: Inhibitor binding to cyclophilin proteins by SPR, CypB; parameters: unit not given here; settings: 1:1 binding model
Outline: (§1)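 Running buffer: 10 mM HEPES pH 7.4, 150 mM NaCl, 0.05% P20, 3% DMSO, with compound present. Capture of avi-tagged mono-biotinylated cyclophilin; single-cycle series, 1 min contact, 10 min dissociation. Rates and affinity fitted to a 1:1 interaction model.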

[2] = target: cyclophilin A (CypA) (Homo sapiens (Human), UniProt P62937); experiment: Inhibitor binding to cyclophilin proteins by SPR, CypA; parameters: unit not given here; settings: 1:1 binding model;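 note: Single-cycle kinetics on a Biacore T200, compound injected at several concentrations for 1 min each at 50 µL/min, then 10 min dissociation, in HEPES pH 7.4 buffer with 3% DMSO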
[3] = tested on: genotype 1b subgenomic HCV replicon in Huh7.5 cells; assay type: cell-based, hepatitis C virus; settings: read-out: RPLN-1b IC50
Outline: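 Replicon inhibition read as renilla luciferase signal versus DMSO controls after 72 h incubation, in Huh7.5 cells harbouring a genotype 1b subgenomic replicon; medium phenol red-free DMEM lacking G418. CC50 determined in parallel via Cell Titer-Glo.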

[4] = target: CypF (Homo sapiens (Human), UniProt P30405); experiment: Inhibitor binding to cyclophilin proteins by SPR, CypF; settings: 1:1 binding model
Outline: as §1

[5] = target: CYP3A4 (Homo sapiens (Human), UniProt P08684); experiment: Time-dependent inhibition of CYP3A4;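 note: Two-step in vitro assay, kobs derived from residual CYP3A4 activity versus preincubation time per concentration, then kinact and KI by nonlinear fit of kobs against concentration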
Method: Method 5: Measuring Time-Dependent Inhibition of CYP3A4
The CYP3A4 time dependent inhibition potential of various inhibitors was determined by a two step in vitro assay. […] The inactivation rate constant (kobs) was obtained by plotting the activity remaining over pre-incubation time for each concentration of compound. The maximal inactivation rate (kinact) and the inactivation potency (KI) were calculated by non linear regression analysis of the inactivation rate constant (kobs) versus compound concentrations [I] curve according to the equation kobs=[kinact·[I]]/[KI+[I]]

[6] = target: organic anion transporting polypeptide 1B1 (OATP1B1) (Homo sapiens (Human), UniProt Q9Y6L6); experiment: OATP assay in CHO-OATP1B1 cells;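 note: inhibition of probe substrate uptake into the cells, ten minutes exposure, accumulated substrate read by fluorescence once cells were lysed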
[7] = tested on: peripheral blood mononuclear cells (PBMC); experiment: Anti-proliferative or immunosuppressive activity, BrdU incorporation in PHA-stimulated PBMC; assay type: cell-based; settings: PHA 3 μg/ml, 60 hour compound treatment; read-out: EMV PBMC IC50
Outline: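 BrdU ELISA read-out of DNA synthesis in freshly isolated PBMCs (two donors, 30,000 cells/well, X-VIVO 15). T-cell proliferation triggered with phytohemagglutinin at 3 μg/ml.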

[8] = genotype 1b replicon, 72 h incubation

cyclophilin A (CypA), sequence (P62937 whole entry): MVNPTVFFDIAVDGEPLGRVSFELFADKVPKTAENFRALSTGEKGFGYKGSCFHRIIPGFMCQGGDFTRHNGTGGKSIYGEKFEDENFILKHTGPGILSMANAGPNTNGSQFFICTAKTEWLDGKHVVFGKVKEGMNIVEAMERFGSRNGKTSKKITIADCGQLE
CypF, sequence (P30405 30-207): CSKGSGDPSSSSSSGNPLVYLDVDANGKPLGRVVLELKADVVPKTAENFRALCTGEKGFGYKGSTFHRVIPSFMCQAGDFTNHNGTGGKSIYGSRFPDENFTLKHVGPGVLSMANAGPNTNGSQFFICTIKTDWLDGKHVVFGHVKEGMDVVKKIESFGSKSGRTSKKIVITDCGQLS
CYP3A4, sequence (P08684 whole entry): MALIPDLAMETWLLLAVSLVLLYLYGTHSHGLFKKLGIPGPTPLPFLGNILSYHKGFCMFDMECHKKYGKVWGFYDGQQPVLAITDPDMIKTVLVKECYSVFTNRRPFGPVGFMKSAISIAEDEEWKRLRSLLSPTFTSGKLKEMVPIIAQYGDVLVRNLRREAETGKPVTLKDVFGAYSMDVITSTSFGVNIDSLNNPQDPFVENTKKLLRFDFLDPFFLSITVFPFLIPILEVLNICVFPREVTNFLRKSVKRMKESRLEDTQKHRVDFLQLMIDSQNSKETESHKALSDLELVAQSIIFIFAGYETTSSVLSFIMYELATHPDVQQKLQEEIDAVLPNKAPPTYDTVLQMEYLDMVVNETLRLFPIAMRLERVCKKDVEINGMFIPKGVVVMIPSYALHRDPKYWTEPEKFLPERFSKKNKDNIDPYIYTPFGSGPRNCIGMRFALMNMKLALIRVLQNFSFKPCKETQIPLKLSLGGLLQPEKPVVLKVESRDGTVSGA
organic anion transporting polypeptide 1B1 (OATP1B1), sequence (Q9Y6L6 whole entry): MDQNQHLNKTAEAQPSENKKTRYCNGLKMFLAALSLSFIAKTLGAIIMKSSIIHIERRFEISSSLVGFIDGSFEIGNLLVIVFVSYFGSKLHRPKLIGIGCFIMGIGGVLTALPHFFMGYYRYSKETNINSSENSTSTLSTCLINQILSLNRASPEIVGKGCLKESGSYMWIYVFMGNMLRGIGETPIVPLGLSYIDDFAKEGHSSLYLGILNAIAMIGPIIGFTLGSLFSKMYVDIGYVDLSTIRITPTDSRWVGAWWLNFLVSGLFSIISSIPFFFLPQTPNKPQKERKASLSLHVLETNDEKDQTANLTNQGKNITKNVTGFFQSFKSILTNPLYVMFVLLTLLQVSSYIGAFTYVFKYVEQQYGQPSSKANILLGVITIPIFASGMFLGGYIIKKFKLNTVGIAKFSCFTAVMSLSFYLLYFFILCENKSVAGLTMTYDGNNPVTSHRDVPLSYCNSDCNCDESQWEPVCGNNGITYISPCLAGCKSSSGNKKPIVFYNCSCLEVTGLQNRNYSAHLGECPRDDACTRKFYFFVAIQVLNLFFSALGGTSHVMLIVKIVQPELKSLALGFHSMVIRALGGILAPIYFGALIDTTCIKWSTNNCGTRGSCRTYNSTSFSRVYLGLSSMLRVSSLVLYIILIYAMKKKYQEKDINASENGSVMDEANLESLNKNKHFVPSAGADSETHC
cyclophilin B (CypB), sequence (P23284 34-216): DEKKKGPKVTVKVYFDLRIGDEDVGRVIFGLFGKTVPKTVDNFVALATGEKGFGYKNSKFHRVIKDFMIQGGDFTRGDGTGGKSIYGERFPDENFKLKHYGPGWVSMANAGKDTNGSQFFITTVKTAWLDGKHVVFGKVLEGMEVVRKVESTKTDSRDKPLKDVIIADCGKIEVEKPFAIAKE

| Compound | CypB Kd [1] | CypA Kd [2] | IC50 [3, 8] | CypF Kd [4] | NIM TDI, result in words ([5]; probe substrate midazolam) | IC50 [6] | IC50 [7] | Ki [5] | IC50 [3] | KI (inactivation) [5] | NIM TDI kinact/Ki ([5]; probe substrate midazolam) |
| --- | --- | --- | --- | --- | --- | --- | --- | --- | --- | --- | --- |
| C/C=C/C[C@@H](C)[C@@H](O)[C@H]1C(=O)N[C@@H](CC)C(=O)N(C)[C@H](C)C(=O)N(C)[C@@H]([C@H](C)CO)C(=O)N[C@@H](C(C)C)C(=O)N(C)[C@@H](CC(C)C)C(=O)N[C@@H](C)C(=O)N[C@H](C)C(=O)N(C)[C@@H](CC(C)C)C(=O)N(C)[C@@H](CC(C)C)C(=O)N(C)[C@@H](C(C)C)C(=O)N1C [Compound 2.5.1, 3-[D-Ala]-4-[(2S,3S)-4-hydroxy-3-methyl-2-(methylamino)butanoyl]-cyclosporin] (cyclo(A[dA][NMeL][NMeL][NMeV][MeBmt][Abu][dNMeA][X24]V[NMeL])) | 3.5 | 4.8 | 400 nM | 2.2 nM | No TDI | 3.6 µM | 6.8 µM |  |  |  |  |
| C/C=C/C[C@@H](C)[C@@H](O)[C@H]1C(=O)N[C@@H](CC)C(=O)N(C)[C@H](C)C(=O)N(C)[C@@H]([C@@H](C)CN2CCN(CC)CC2)C(=O)N[C@@H](C(C)C)C(=O)N(C)[C@@H](CC(C)C)C(=O)N[C@@H](C)C(=O)N[C@H](C)C(=O)N(C)[C@@H](CC(C)C)C(=O)N(C)[C@@H](CC(C)C)C(=O)N(C)[C@@H](C(C)C)C(=O)N1C [Compound 2.17.2, 3-[D-Ala]-4[(2S,3S)-2-Amino-4-(4-ethyl-piperazin-1-yl)-3-methyl-butanoyl]-cyclosporin] (cyclo(A[dA][NMeL][NMeL][NMeV][MeBmt][Abu][dNMeA][X11]V[NMeL])) | 0.5 | 0.6 | 35 nM | 0.5 nM |  | 5.1 µM | 14.5 µM | > 50 µM |  |  |  |
| C/C=C/C[C@@H](C)[C@@H](O)[C@H]1C(=O)N[C@@H](CC)C(=O)N(C)[C@H](C)C(=O)N(C)[C@@H]([C@H](C)CN2CCN(C3COC3)CC2)C(=O)N[C@@H](C(C)C)C(=O)N(C)[C@@H](CC(C)C)C(=O)N[C@@H](C)C(=O)N[C@H](C)C(=O)N(C)[C@@H](CC(C)C)C(=O)N(C)[C@@H](CC(C)C)C(=O)N(C)[C@@H](C(C)C)C(=O)N1C [Compound 2.5.11] (cyclo(A[dA][NMeL][NMeL][NMeV][MeBmt][Abu][dNMeA][X63]V[NMeL])) | 1.2 | 1.6 | 50 nM | 1 nM |  | 1.17 µM | 13.9 µM | > 50 µM |  |  |  |
| C/C=C/C[C@@H](C)[C@@H](O)[C@H]1C(=O)N[C@@H](CC)C(=O)N(C)[C@H](C)C(=O)N(C)[C@@H]([C@H](C)CN2CCN(CCOC)CC2)C(=O)N[C@@H](C(C)C)C(=O)N(C)[C@@H](CC(C)C)C(=O)N[C@@H](C)C(=O)N[C@H](C)C(=O)N(C)[C@@H](CC(C)C)C(=O)N(C)[C@@H](CC(C)C)C(=O)N(C)[C@@H](C(C)C)C(=O)N1C [Compound 2.5.10, 3-[D-Ala]-4[(2S,3R)-2-Amino-4-[4-(2-methoxy-ethyl)-piperazin-1-yl]-3-methyl-butanoyl]-cyclosporin] (cyclo([MeBmt][Abu][dNMeA][X8]V[NMeL]A[dA][NMeL][NMeL][NMeV])) | 1.2 | 1.2 |  | 0.9 nM |  | 6.1 µM | 16.8 µM |  | 39 nM | > 50 µM |  |
| C/C=C/C[C@@H](C)[C@@H](O)[C@H]1C(=O)N[C@@H](CC)C(=O)N(C)[C@H](C)C(=O)N(C)[C@@H]([C@H](C)COCCN2CCN(C3CCC3)CC2)C(=O)N[C@@H](C(C)C)C(=O)N(C)[C@@H](CC(C)C)C(=O)N[C@@H](C)C(=O)N[C@H](C)C(=O)N(C)[C@@H](CC(C)C)C(=O)N(C)[C@@H](CC(C)C)C(=O)N(C)[C@@H](C(C)C)C(=O)N1C [Compound 2.8.8, 3-[D-Ala]-4-[(2S,3S)-4-(2-(4-cyclobutylpiperazin-1-yl)ethoxy)-3-methyl-2-(methylamino)butanoyl]-cyclosporin] (cyclo(A[dA][NMeL][NMeL][NMeV][MeBmt][Abu][dNMeA][X58]V[NMeL])) | 0.5 | 0.5 | 35 nM | 0.3 nM |  | 3.5 µM | 18.9 µM |  |  |  | 0.0007 µL/min/pmol |
